Data taken from paper PMC12136037, “Type II kinase inhibitors that target Parkinson’s disease–associated LRRK2” (Science Advances, 2025).

Columns and labels:
Test in all cases: DSF 100 kinase selectivity screen;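 also: compound tested at 20 µM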
Assay type in all cases: binding
[1] = target: T1, ~100 representative kinases (Homo sapiens, UniProt Q16654); settings: protein PDK4; average of three replicates
T1 construct: Recombinant protein kinase domains with a concentration of 2 μM
Summary of the method: (§1)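 Each kinase domain, at 2 μM, is mixed with 20 μM test compound and SYPRO Orange in Hepes (20 mM, pH 7.5) with 500 mM NaCl. Temperature is then raised at 3°C/min and fluorescence-monitored unfolding yields the melting temperature change, ΔTm in degrees Celsius.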

[2] = target: T2, ~100 representative kinases (Homo sapiens, UniProt O15164); settings: Protein TIF1; DSF; average of three replicates
T2 construct: Recombinant protein kinase domains with a concentration of 2 μM
T2 sequence (O15164 1-1050): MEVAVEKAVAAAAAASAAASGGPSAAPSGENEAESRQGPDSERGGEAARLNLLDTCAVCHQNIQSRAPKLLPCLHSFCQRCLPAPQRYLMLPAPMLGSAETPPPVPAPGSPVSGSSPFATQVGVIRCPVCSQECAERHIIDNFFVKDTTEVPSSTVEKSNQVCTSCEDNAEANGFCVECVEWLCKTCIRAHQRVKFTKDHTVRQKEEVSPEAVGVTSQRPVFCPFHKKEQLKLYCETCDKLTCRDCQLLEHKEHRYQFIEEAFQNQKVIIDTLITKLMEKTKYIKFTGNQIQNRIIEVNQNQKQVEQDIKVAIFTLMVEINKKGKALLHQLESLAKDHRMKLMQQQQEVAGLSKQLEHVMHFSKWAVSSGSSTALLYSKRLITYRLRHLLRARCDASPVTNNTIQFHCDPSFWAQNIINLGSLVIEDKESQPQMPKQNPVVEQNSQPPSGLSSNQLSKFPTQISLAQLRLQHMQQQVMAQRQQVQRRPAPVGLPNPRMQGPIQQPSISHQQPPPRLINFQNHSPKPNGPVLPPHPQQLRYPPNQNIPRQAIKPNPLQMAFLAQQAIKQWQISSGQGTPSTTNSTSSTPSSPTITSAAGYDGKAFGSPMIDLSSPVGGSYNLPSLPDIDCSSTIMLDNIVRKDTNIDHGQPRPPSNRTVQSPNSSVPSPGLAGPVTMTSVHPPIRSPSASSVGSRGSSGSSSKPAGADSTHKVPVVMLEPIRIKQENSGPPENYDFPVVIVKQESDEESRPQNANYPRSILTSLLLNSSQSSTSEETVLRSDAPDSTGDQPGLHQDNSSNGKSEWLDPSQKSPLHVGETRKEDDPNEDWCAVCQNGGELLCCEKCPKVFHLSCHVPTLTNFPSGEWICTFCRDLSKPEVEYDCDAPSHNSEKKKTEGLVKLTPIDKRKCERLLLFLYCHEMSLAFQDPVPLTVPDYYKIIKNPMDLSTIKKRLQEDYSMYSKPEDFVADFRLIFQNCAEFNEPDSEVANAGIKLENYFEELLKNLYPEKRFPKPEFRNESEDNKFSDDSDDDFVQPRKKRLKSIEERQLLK
Summary of the method: as §1

[3] = target: T3, ~100 representative kinases (Homo sapiens, UniProt O75385); settings: Protein ULK1; DSF; average of three replicates
T3 construct: Recombinant protein kinase domains with a concentration of 2 μM
T3 sequence (O75385 1-1050): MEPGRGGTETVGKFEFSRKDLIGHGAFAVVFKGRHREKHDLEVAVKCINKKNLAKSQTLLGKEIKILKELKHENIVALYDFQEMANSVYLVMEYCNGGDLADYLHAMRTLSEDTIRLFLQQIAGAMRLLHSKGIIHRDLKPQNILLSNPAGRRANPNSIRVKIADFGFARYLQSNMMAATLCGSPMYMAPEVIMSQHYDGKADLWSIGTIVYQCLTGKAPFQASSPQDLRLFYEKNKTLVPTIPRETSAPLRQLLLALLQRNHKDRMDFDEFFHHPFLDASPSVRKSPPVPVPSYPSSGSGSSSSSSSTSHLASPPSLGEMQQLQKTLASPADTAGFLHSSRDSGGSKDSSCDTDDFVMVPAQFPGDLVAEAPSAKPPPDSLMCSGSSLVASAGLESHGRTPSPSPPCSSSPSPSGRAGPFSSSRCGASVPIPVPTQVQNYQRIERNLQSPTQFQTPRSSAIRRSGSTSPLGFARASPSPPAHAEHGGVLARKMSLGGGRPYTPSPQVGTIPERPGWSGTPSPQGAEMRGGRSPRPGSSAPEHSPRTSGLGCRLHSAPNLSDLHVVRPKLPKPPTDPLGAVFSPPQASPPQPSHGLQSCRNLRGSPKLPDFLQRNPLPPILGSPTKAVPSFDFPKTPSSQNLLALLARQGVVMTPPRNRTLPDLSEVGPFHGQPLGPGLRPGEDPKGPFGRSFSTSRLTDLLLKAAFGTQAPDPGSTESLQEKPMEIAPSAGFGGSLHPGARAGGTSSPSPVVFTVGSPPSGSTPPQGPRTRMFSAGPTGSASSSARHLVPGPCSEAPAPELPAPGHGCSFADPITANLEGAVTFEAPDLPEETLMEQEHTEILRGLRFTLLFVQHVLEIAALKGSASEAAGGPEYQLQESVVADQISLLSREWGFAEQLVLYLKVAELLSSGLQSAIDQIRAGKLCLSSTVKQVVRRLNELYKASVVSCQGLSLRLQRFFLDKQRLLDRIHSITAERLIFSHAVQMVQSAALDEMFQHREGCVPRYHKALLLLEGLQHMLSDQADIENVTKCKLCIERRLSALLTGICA
Summary of the method: as §1

[4] = target: T4, ~100 representative kinases (Homo sapiens, UniProt Q02750); settings: protein MAP2K1; average of three replicates
T4 construct: Recombinant protein kinase domains with a concentration of 2 μM
Summary of the method: as §1

[5] = target: T5, ~100 representative kinases (Homo sapiens, UniProt P78368); settings: Protein CSNK1G2; average of three replicates
T5 construct: Recombinant protein kinase domains with a concentration of 2 μM
Summary of the method: as §1

T4 sequence (Q02750 whole entry, the tested form may be a part): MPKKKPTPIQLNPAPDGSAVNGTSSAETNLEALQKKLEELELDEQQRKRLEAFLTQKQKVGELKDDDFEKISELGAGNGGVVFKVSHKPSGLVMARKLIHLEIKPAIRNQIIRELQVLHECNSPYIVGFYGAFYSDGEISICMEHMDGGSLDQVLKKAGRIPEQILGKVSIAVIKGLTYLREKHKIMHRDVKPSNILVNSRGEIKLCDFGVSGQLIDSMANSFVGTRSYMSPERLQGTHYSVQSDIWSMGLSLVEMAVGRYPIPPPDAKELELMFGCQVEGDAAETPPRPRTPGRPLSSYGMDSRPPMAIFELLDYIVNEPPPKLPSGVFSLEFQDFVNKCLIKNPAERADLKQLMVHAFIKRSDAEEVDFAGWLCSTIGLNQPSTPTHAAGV
T5 sequence (P78368 whole entry, the tested form may be a part): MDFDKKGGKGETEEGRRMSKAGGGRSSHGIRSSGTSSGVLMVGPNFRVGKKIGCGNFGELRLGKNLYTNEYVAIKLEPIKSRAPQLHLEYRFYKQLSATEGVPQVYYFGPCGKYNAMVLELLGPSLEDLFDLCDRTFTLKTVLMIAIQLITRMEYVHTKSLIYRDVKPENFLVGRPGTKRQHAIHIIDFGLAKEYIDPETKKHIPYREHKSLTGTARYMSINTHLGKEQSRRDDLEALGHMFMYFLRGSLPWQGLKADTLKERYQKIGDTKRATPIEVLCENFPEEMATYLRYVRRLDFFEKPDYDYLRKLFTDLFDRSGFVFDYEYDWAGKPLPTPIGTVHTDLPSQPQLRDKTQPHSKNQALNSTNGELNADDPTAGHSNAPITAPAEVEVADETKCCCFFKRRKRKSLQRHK
T1 sequence (Q16654 whole entry, the tested form may be a part): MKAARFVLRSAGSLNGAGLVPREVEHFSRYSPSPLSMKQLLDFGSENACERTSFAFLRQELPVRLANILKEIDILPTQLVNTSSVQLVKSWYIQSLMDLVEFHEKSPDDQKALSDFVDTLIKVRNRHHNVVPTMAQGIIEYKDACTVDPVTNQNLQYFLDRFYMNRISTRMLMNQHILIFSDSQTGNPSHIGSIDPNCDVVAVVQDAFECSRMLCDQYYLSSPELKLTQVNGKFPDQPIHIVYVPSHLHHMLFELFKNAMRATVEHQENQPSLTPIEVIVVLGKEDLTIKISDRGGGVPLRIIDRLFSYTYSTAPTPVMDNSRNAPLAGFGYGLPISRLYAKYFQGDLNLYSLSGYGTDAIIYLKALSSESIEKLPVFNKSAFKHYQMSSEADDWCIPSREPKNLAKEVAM

`CCNc1nc(Nc2cc(F)c(C(=O)N3CCOCC3)cc2OC)ncc1C(F)(F)F` [GNE-7915] was tested. Which dTm [1] did it give?
Its dTm is -0.0168 K.

And the dTm [2]?
Its dTm is -0.22 K.

And the dTm [3]?
Its dTm is 1.06 K.

What about the dTm [4] of the same compound?
The dTm was 0.0455 K.

With `Cc1ccc(C(=O)Nc2ccc(CN3CCN(C)CC3)c(C(F)(F)F)c2)cc1C#Cc1cnc2[nH]ncc2c1` [GZD-824, reference compound] as the compound, how does the dTm [1] read?
The dTm was -0.28 K.

And the dTm [2]?
The dTm was 0.34 K.

What about the dTm [3] of the same compound?
The dTm was 6.60 K.

And the dTm [4]?
Its dTm is 0.63 K.

With `Cc1ccc(C(=O)Nc2ccc(CN3CCN(C)CC3)c(C(F)(F)F)c2)cc1C#Cc1cnc2cccnn12` [Ponatinib, reference compound] as the compound, how does the dTm [1] read?
The dTm was -0.09 K.

And the dTm [2]?
The dTm was 0.0214 K.

`O=C(Nc1ccc(Cl)cc1)C1(C(=O)Nc2cccc(-c3c[nH]c4ncnc(N5CCOCC5)c34)c2)CC1` [Compound 13] was tested. Which dTm [5] did it give?
Its dTm is 0.51 K.

With `O=C(Nc1cccc(-c2c[nH]c3ncnc(N4CCOCC4)c23)c1)C1(C(=O)Nc2ccc(F)c(Cl)c2)CC1` [Compound 18] as the compound, how does the dTm [5] read?
Its dTm is 0.27 K.

Which results are given for `Cn1cc(-c2c[nH]c3ncnc(N4CCOCC4)c23)cc1C#N` [PFE-360]?
dTm [1]: -0.55 K; dTm [2]: 0.08 K; dTm [3]: 1.48 K; dTm [4]: 0.65 K

With `O=C(Nc1cccc(-c2c[nH]c3ncnc(N4CCOCC4)c23)c1)c1cccn(-c2ccc(F)cc2)c1=O` [Compound 4] as the compound, how does the dTm [5] read?
Its dTm is 0.40 K.

Which results are given for `Cc1ccc(C(=O)Nc2ccc(CN3CCN(C)CC3)c(C(F)(F)F)c2)cc1C#Cc1c[nH]c2ncnc(N3CCOCC3)c12` [Compound 1]?
dTm [1]: -0.54 K; dTm [2]: 0.45 K; dTm [3]: 6.89 K

`O=C(Nc1ccc(F)cc1)C1(C(=O)Nc2cccc(-c3c[nH]c4ncnc(N5CCOCC5)c34)c2)CC1` [Compound 2] was tested. Which dTm [5] did it give?
Its dTm is 0.45 K.

`Cc1cc(F)ccc1NC(=O)C1(C(=O)Nc2cccc(-c3c[nH]c4ncnc(N5CCOCC5)c34)c2)CC1` [Compound 24] was tested. Which dTm [5] did it give?
Its dTm is 0.62 K.

Which dTm [5] does the source give for `CCc1ccc(NC(=O)C2(C(=O)Nc3cccc(-c4c[nH]c5ncnc(N6CCOCC6)c45)c3)CC2)cc1` [Compound 15] here?
Its dTm is 0.60 K.

Which dTm [5] does the source give for `COc1ccc(NC(=O)C2(C(=O)Nc3cccc(-c4c[nH]c5ncnc(N6CCOCC6)c45)c3)CC2)cc1` [Compound 16] here?
The dTm was 0.71 K.

For `COc1cc(NC(=O)C2(C(=O)Nc3cccc(-c4c[nH]c5ncnc(N6CCOCC6)c45)c3)CC2)ccc1F` [Compound 21], which dTm [5] is on record?
Its dTm is 0.57 K.

What does the source list for `C[C@@H]1CN(c2cc(-c3n[nH]c4ccc(OC5(C)CC5)cc34)ncn2)C[C@H](C)O1` [MLi2]?
dTm [1]: -0.0742 K; dTm [2]: 0.28 K; dTm [3]: 0.01 K; dTm [4]: -0.0332 K

For `O=C(Nc1cccc(-c2c[nH]c3ncnc(N4CCOCC4)c23)c1)C1(C(=O)Nc2ccc(F)c(F)c2)CC1` [Compound 17], which dTm [5] is on record?
The dTm was 0.36 K.

With `CC(C)(C)c1cc(NC(=O)Nc2cccc(-c3c[nH]c4ncnc(N5CCOCC5)c34)c2)n(-c2ccc3ncccc3c2)n1` [Compound 28] as the compound, how does the dTm [5] read?
The dTm was 0.05 K.
